This note sets out measurements from patent publication US9464084B2, “P2X7 modulators” (Janssen Pharmaceutica NV, priority 2013, dated 2016).

The target in assay [1] is T1, P2X7 (Homo sapiens (Human), UniProt Q99572). Put plainly: P2X7 antagonism in human PBMCs (LPS + Bz-ATP induced IL-1β release, ELISA).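 On all read-outs here: PBMCs from donor human blood, with a further 1.5 h incubation of the cells in the assay.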 It is filed as cell-based. As to conditions: LPS 30 ng/ml, Bz-ATP 0.5 mM; for PBMC 1 μM (% control): compound 1 μM; for PBMC 10 μM (% control): compound 10 μM. (In general: In an ELISA, binding on a coated surface is turned into a signal by an enzyme label.)

Assay [2] has as its target T1, P2X7. Put plainly: Ca2+ flux (FLIPR) in 1321N1 cells expressing recombinant human P2X7 channel.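 Further: Calcium-4 dye-loaded cells exposed to compound for 30 min before agonist addition, fluorescence change read 180 s after agonist.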 The conditions noted are these: 250 μM BzATP. It is filed as cell-based. In general terms: Calcium flux is commonly read through the fluorescence of an indicator in the cells.
Assay [3] addresses T1, P2X7. Put plainly: Radioligand binding, tritiated A-804598, human P2X7-1321N1 cell membranes.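 Further: ki obtained from the binding IC50 after correction for tracer concentration and tracer affinity.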 As to conditions: 1 hour at 4° C.
Experimental: On the day of the experiment, cell membrane preparations were made according to standard published methods. […] The assay was terminated by filtration (GF/B filters pre-soaked with 0.3% PEI) and washed with washing buffer (Tris-HCl 50 mM). The IC50 generated in the binding assay was corrected for tracer concentration and affinity of the tracer to derive at the affinity (Ki) of the test compounds.
The next assay concerns the target rat P2X7 (Rattus norvegicus (Rat), UniProt Q64663). Put plainly: Ca2+ flux (FLIPR) in 1321N1 cells expressing recombinant rat P2X7 channel.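 Further: Calcium-4 dye fluorescence change read 180 s after agonist addition, following 30 min cell preincubation with test compound.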 As to conditions: 250 μM BzATP. It is filed as cell-based.

T1 sequence (Q99572 whole entry): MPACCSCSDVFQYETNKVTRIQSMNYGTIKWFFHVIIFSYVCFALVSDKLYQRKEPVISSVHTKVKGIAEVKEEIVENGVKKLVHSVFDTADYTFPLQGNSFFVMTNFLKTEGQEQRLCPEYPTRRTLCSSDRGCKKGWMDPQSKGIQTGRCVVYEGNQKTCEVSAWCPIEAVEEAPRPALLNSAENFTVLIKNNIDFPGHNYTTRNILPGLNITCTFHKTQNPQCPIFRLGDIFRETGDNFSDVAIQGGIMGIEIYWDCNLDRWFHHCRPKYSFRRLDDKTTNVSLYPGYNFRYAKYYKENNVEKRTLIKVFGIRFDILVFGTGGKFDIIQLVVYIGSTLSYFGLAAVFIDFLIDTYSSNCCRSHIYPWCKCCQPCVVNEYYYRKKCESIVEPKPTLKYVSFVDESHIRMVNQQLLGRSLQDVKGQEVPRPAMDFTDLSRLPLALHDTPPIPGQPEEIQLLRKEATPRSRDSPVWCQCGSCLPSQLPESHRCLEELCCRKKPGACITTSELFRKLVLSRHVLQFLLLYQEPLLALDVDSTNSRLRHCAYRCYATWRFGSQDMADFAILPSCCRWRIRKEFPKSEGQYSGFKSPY
Chain of rat P2X7 (Q64663 whole entry): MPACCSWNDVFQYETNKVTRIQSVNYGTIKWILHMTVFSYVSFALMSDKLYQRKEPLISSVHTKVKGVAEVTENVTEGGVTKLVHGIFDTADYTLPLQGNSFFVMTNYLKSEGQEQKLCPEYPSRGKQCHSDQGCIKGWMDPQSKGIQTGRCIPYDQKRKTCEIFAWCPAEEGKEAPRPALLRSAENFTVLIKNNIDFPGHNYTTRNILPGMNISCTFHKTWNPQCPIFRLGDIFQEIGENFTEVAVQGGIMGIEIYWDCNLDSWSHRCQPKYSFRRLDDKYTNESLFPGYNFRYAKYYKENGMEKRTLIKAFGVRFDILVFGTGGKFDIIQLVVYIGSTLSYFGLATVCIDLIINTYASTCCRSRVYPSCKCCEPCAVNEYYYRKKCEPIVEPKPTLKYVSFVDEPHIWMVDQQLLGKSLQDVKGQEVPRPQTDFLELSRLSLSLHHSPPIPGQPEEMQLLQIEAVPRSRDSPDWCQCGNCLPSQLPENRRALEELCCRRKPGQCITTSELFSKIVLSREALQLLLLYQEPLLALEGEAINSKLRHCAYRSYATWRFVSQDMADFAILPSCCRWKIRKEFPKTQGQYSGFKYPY

One may read the IC50 as the midpoint of a concentration-inhibition curve. As usually defined, the Ki is the equilibrium dissociation constant of an inhibitor or competing ligand from its target. As to `CC1c2nnn(-c3cnccn3)c2C=CN1C(=O)c1cccc(C(F)(F)F)c1Cl` (stereo not drawn) [Example 72, 5-{[2-Chloro-3-(trifluoromethyl)phenyl]carbonyl}-4-methyl-1-pyrazin-2-yl-4,5-dihydro-1H-[1,2,3]triazolo[4,5-c]pyridine], the “PBMC 1 μM (% control)” value at P2X7 [1] is given as −5.7 % control. Besides, the IC50 at P2X7 [2] was found to be 0.0042 µM; on rat P2X7, 0.169 µM. The affinity on P2X7 [3] corresponds to a Ki of 0.0295 µM.
As to `CC1c2nnn(-c3ncc(F)cn3)c2CCN1C(=O)c1cccc(Cl)c1Cl` (stereo not drawn) [Example 174, (2,3-Dichlorophenyl)(1-(5-fluoropyrimidin-2-yl)-4-methyl-6,7-dihydro-1H-[1,2,3]triazolo[4,5-c]pyridin-5(4H)-yl)methanone], the “PBMC 10 μM (% control)” value on P2X7 [1] is 4.2 % control. In addition, the IC50 at P2X7 [2] was found to be 0.0033 µM; at rat P2X7, 1.68 µM. For the same compound, affinity on P2X7 [3] was put at a Ki of 0.0501 µM.
Take `Cc1c(C(=O)N2CCc3c(nnn3-c3ccccn3)C2)ccc(F)c1F` [Example 132, (3,4-Difluoro-2-methylphenyl)(1-(pyridin-2-yl)-6,7-dihydro-1H-[1,2,3]triazolo-[4,5-c]pyridin-5(4H)-yl)methanone]: the “PBMC 10 μM (% control)” value on P2X7 [1] is recorded as 3.8 % control. Further, the IC50 on P2X7 [2] was determined as 0.0783 µM; at rat P2X7, 4.43 µM. The Ki at P2X7 [3] worked out at 0.0501 µM.
For `CC1c2nnn(-c3cc[nH]n3)c2C=CN1C(=O)c1cccc(C(F)(F)F)c1Cl` (stereo not drawn) [Example 86, 5-{[2-Chloro-3-(trifluoromethyl)phenyl]carbonyl}-4-methyl-1-(1H-pyrazol-3-yl)-4,5-dihydro-1H-[1,2,3]triazolo[4,5-c]pyridine], in that order: 13.0 % control, 0.0129 µM, 0.136 µM and 0.0398 µM.
As to `O=C(c1cccc(C(F)(F)F)c1Cl)N1CCc2[nH]nnc2C1c1ccccc1` (stereo not drawn) [Example 78, 5-{[2-Chloro-3-(trifluoromethyl)phenyl]carbonyl}-4-phenyl-4,5,6,7-tetrahydro-1H-[1,2,3]triazolo[4,5-c]pyridine], at P2X7 [1], the “PBMC 1 μM (% control)” value is 57.7 % control. For the same compound, the IC50 came to 0.0631 µM at P2X7 [2] and 0.501 µM on rat P2X7. The compound further had a Ki at P2X7 [3] of 0.1 µM.
`Cc1cncc(-n2nnc3c2CCN(C(=O)c2cccc(C(F)(F)F)c2Cl)C3C)n1` (stereo not drawn) [Example 251, (2-Chloro-3-(trifluoromethyl)phenyl)(4-methyl-1-(6-methylpyrazin-2-yl)-6,7-dihydro-1H-[1,2,3]triazolo[4,5-c]pyridin-5(4H)-yl)methanone]: the “PBMC 10 μM (% control)” value on P2X7 [1] is reported as 11.6 % control. The results for the IC50 on P2X7 [2] and on rat P2X7 were 0.124 µM and 9.11 µM, respectively. In addition, the Ki at P2X7 [3] turned out to be 0.144 µM.
Turning to `O=C(c1cccc(C(F)(F)F)c1Cl)N1CCc2c(ncn2-c2ccccc2)C1` [Example 2, (2-Chloro-3-(trifluoromethyl)phenyl)(1-phenyl-6,7-dihydro-1H-imidazo[4,5-c]pyridin-5(4H)-yl)methanone], the “PBMC 1 μM (% control)” value at P2X7 [1] is reported as 7.9 % control. For the same compound, the IC50 came to 0.0184 µM at P2X7 [2] and 1.94 µM at rat P2X7. Also, the Ki at P2X7 [3] turned out to be 0.0871 µM.
Take `Cc1cccc(-n2nnc3c2CCN(C(=O)c2cccc(C(F)(F)F)c2Cl)C3C)n1` (stereo not drawn) [Example 302, (2-chloro-3-(trifluoromethyl)phenyl)(4-methyl-1-(6-methylpyridin-2-yl)-6,7-dihydro-1H-[1,2,3]triazolo[4,5-c]pyridin-5(4H)-yl)methanone]: the “PBMC 10 μM (% control)” value on P2X7 [1] is −2.8 % control. The IC50 worked out at 0.0116 µM on P2X7 [2] and 0.0143 µM on rat P2X7. This compound came in with a Ki on P2X7 [3] of 0.0316 µM.
On to `O=C(c1ccc(Cl)cc1F)N1CCc2c(nnn2-c2cnccn2)C1` [Example 272, (4-chloro-2-fluorophenyl)(1-(pyrazin-2-yl)-6,7-dihydro-1H-[1,2,3]triazolo[4,5-c]pyridin-5(4H)-yl)methanone], for which, on P2X7 [1], the “PBMC 10 μM (% control)” value is −7.6 % control. Further, the IC50 is 0.622 µM on P2X7 [2] and 3.02 µM on rat P2X7. At P2X7 [3], the affinity, expressed as Ki, was 0.1 µM.
